Laboratory results: US20150344466A1 (SUMITOMO CHEMICAL COMPANY, LIMITED, priority 2013, published 2015)

Experiments:
Type in all cases: in vivo
Aphis gossypii = test: Soil treatment test on Aphis gossypii on cucumber (Test Example 9); conditions: 168 h, 5 ml treatment solution in contact with soil, seven days after putting insects, read-out: controlling value
Experimental: On the other hand, cucumber was planted in a polyethylene cup with a plurality of small holes on the bottom and grown until the first true leaf was spread. A cup in which cucumber was planted was put in a plastic cup with 5 ml of the test treatment solution, so that the soil in the cup was in contact with the treatment liquid. After five days, about 20Aphis gossypii were allowed to parasitize the cucumber, and seven days after putting insects, the number of Aphis gossypii was investigated, and the controlling value was calculated according to the following equation. Controlling value (%)={1−(Cb×Tai)/([…])}×100 In the equation, the symbols represent as follows. Cb: the number of insects in a non-treated section before treatment Cai: the number of insects in a non-treated section on observation Tb: the number of insects in a treated section before treatment Tai: the number of insects in a treated section on observation

Musca domestica [1] = test: Filter paper/sucrose bait death rate test on Musca domestica (Test Example 5); conditions: female imagoes of Musca domestica, 0.7 ml on filter paper, after 24 hours
Outline: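 Ten female imagoes were confined in a sealed cup over a filter paper treated with 0.7 ml of test solution and 30 mg sucrose bait. Mortality was scored at 24 h and expressed as percent of tested insects killed.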

Culex pipiens pallens [2] = test: Knockdown spray test on adult Culex pipiens pallens (Test Example 4); conditions: topical, 0.25 h, active ingredient 0.1% w/v, 0.5 ml sprayed, within 15 minutes, read-out: knockdown rate of the test insects within 15 minutes
Outline: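 Knockdown counts were taken 2, 5 and 15 min after spraying and expressed as percent of the 10 adults tested. For the spray, 0.5 ml of solution was applied by spray gun (0.4 kg/cm^2) from 30 cm above a gauze-covered cup in a test chamber; the cup was taken out right after spraying.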

Blattella germanica [3] = test: Knockdown spray test on Blattella germanica, 2.0% w/v oil formulation (Test Example 1); conditions: topical, 0.25 h, active ingredient 2.0% w/v, 1.5 ml sprayed, within 15 minutes, read-out: knockdown rate of the test insects within 15 minutes
Outline: (§1)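 Ten German cockroaches (5 males, 5 females) in a mesh-bottomed, butter-walled container were sprayed with 1.5 ml test solution from 60 cm at 0.42 kg/cm^2 inside a chamber.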

Musca domestica [4] = test: Knockdown spray test on adult Musca domestica (Test Example 3); conditions: topical, 0.25 h, active ingredient 2.0% w/v, 0.5 ml sprayed, within 15 minutes, read-out: knockdown rate of the test insects within 15 minutes
Outline: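 Ten adult house flies (5 male, 5 female) in a gauze-covered cup sprayed with 0.5 ml test solution from 30 cm at 0.9 kg/cm^2 inside a chamber, then removed. Knocked-down flies counted at 2, 5 and 15 min and expressed as % of insects tested.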

Blattella germanica [5] = test: Knockdown spray test on Blattella germanica, 0.1% w/v oil formulation (Test Example 2); conditions: topical, 0.25 h, active ingredient 0.1% w/v, 1.5 ml sprayed, within 15 minutes, read-out: knockdown rate of the test insects within 15 minutes
Outline: as §1

Culex pipiens pallens [6] = test: Larvicidal test on Culex pipiens pallens, eight days (Test Example 7); conditions: 192 h; last-instar larvae of Culex pipiens pallens; 3.5 ppm in water; eight days later; read-out: death rate
Outline: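 Twenty last-instar larvae placed in 100 ml ion-exchanged water containing test drug at 3.5 ppm active ingredient. Mortality scored after eight days; death rate = dead/tested × 100.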

Spodoptera litura = test: Foliar spray test on Spodoptera litura on cabbage (Test Example 11); conditions: 96 h, fourth instar larvae of Spodoptera litura on cabbage, 500 ppm spray 20 ml/cup, after 4 days, read-out: controlling value
Experimental: On the other hand, cabbage was planted in a polyethylene cup, and grown until the third-fourth true leaf was spread. The test spray solution was sprayed to the cabbage at a ratio of 20 ml/cup. After the drug solution sprayed orn the cabbage was dried, 10 fourth instar larvae of Spodoptera litura were allowed to parasitize the cabbage. After 4 days, the number of surviving Spodoptera litura on the cabbage leaves was examined, and the controlling value was calculated according to the following equation. Controlling value (%)={1−(Cb×Tai)/([…])}×100 In the equation, the symbols represent as follows. Cb: the number of insects in a non-treated section before treatment Cai: the number of insects in a non-treated section on observation Tb: the number of insects in a treated section before treatment Tai: the number of insects in a treated section on observation

Plutella xylostella = test: Foliar spray test on Plutella xylostella on cabbage (Test Example 10); conditions: 120 h, third instar larvae of Plutella xylostella on cabbage, 500 ppm spray 20 ml/cup, after five days, read-out: controlling value
Outline: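 Cabbage at the third–fourth true-leaf stage sprayed with test solution at 20 ml/cup, dried, then infested with 10 third-instar larvae. Insects counted after five days; controlling value (%) calculated from treated and non-treated counts before treatment and at observation.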

Culex pipiens pallens [7] = test: Larvicidal test on Culex pipiens pallens, one day (Test Example 6); conditions: 24 h; last-instar larvae of Culex pipiens pallens; 3.5 ppm in water; one day later; read-out: death rate
Experimental: Each of the formulations of Compounds of Present Invention (39), (63), (71), (72), (92), (93), (95), (106), (150), (171), (170), (181), (182), (183), (187), (188), (189), (190), (191), (192), (200), (201), (201), (234), (246), (290) and (299) obtained in Formulation Example 15 was diluted with water, so as to have a concentration of the active ingredient of 500 ppm, to prepare a test drug solution.
20 last-instar larvae of Culex pipiens pallens were released into a liquid to which 0.7 ml of the above test drug solution was added to 100 ml of ion-exchanged water (a concentration of the active ingredient of 3.5 ppm). One day later, the life and death of the Culex pipiens pallens was examined, and the death rate was calculated. The death rate was calculated by the following equation.
Death rate (%)=(Number of dead insects/Number of tested insects)×100

| Structure (SMILES) | pest or weed control at 500 ppm (Aphis gossypii) [%] | pest or weed control at 0.1 % strength (Culex pipiens pallens [2]) [%] | further results |
| --- | --- | --- | --- |
| CCCc1cc(C(=O)NCC2CCOC2)n(C)n1 (centres unmarked) [(3), N-(tetrahydrofuran-3-ylmethyl)-1-methyl-3-propyl-1H-pyrazole-5-carboxamide] | ≥ 90 | – | – |
| O=C(NCC1CCOC1)c1cn(Cc2ccccc2)nn1 (centres unmarked) [(9)] | ≥ 90 | – | pest or weed control at 500 ppm (Musca domestica [1]): ≥ 90% |
| O=C(NCCC1CCOCC1)c1cc(COCc2ccccc2)on1 [(18), N-[2-(tetrahydropyran-4-yl)ethyl]-5-benzyloxymethylisoxazole-3-carboxamide] | ≥ 90 | ≥ 80 | – |
| O=C(NCCC1CCOC1)c1cc(COCc2ccccc2)on1 (centres unmarked) [(30), N-[2-(tetrahydrofuran-3-yl)ethyl]-5-benzyloxymethylisoxazole-3-carboxamide] | ≥ 90 | ≥ 80 | pest or weed control at 2 % strength (Blattella germanica [3]): ≥ 80%; pest or weed control at 2 % strength (Musca domestica [4]): ≥ 80% |
| O=C(NCC1COCCO1)c1cc(COCc2ccccc2)on1 (centres unmarked) [(31)] | ≥ 90 | ≥ 80 | pest or weed control at 2 % strength (Blattella germanica [3]): ≥ 80% |
| O=C(NC[C@H]1CCOC1)c1cc(COCc2ccccc2)on1 [(33), N—[(R)-tetrahydrofuran-3-ylmethyl]-5-benzyloxymethylisoxazole-3-carboxamide] | ≥ 90 | ≥ 80 | pest or weed control at 2 % strength (Blattella germanica [3]): ≥ 80%; pest or weed control at 2 % strength (Musca domestica [4]): ≥ 80% |
| O=C(NC[C@@H]1CCOC1)c1cc(COCc2ccccc2)on1 [(34), N—[(S)-tetrahydrofuran-3-ylmethyl]-5-benzyloxymethylisoxazole-3-carboxamide] | ≥ 90 | ≥ 80 | pest or weed control at 2 % strength (Blattella germanica [3]): ≥ 80%; pest or weed control at 500 ppm (Musca domestica [1]): ≥ 90%; pest or weed control at 2 % strength (Musca domestica [4]): ≥ 80% |
| CC1(CNC(=O)c2cc(COCc3ccccc3)on2)CCOC1 (centres unmarked) [(36), N-(3-methyltetrahydrofuran-3-ylmethyl)-5-benzyloxymethylisoxazole-3-carboxamide] | ≥ 90 | ≥ 80 | pest or weed control at 2 % strength (Blattella germanica [3]): ≥ 80%; pest or weed control at 2 % strength (Musca domestica [4]): ≥ 80% |
| O=C(NC1CCOCC1)c1cc(COCc2ccccc2)on1 [(43), N-(tetrahydropyran-4-yl)-5-benzyloxymethylisoxazole-3-carboxamide] | ≥ 90 | ≥ 80 | pest or weed control at 2 % strength (Blattella germanica [3]): ≥ 80% |
| CCCCn1cc(C(=O)NCC2CCOC2)cn1 (centres unmarked) [(51), N-(tetrahydrofuran-3-ylmethyl)-1-butyl-1H-pyrazole-4-carboxamide] | ≥ 90 | – | – |
| Cn1nc(COCc2ccccc2)cc1C(=O)NCC1CCOC1 (centres unmarked) [(52), N-(tetrahydrofuran-3-ylmethyl)-3-benzyloxymethyl-1-methyl-1H-pyrazole-5-carboxamide] | ≥ 90 | – | – |
| CCCCn1cc(C(=O)NCC2CCOC2)nn1 (centres unmarked) [(54), N-(tetrahydrofuran-3-ylmethyl)-1-butyl-1H-1,2,3-triazole-4-carboxamide] | ≥ 90 | – | pest or weed control at 500 ppm (Musca domestica [1]): ≥ 90% |
| CCCCc1nc(C(=O)NCC2CCOC2)no1 (centres unmarked) [(57), N-(tetrahydrofuran-3-ylmethyl)-5-butyl-1,2,4-oxadiazole-3-carboxamide] | ≥ 90 | – | – |
| CCCCc1noc(C(=O)NCC2CCOC2)n1 (centres unmarked) [(58), N-(tetrahydrofuran-3-ylmethyl)-3-butyl-1,2,4-oxadiazole-5-carboxamide] | ≥ 90 | – | – |
| O=C(NCC1CCOCC1)c1cc(COCc2ccc(F)cc2)on1 [(90), N-(tetrahydropyran-4-ylmethyl)-5-(4-fluorobenzyloxymethyl)isoxazole-3-carboxamide] | ≥ 90 | ≥ 80 | pest or weed control at 500 ppm (Musca domestica [1]): ≥ 90%; pest or weed control at 0.1 % strength (Blattella germanica [5]): ≥ 80% |
| O=C(NCC1CCOC1)c1cc(COCc2ccc3c(c2)OCO3)on1 (centres unmarked) [(105), N-(tetrahydrofuran-3-ylmethyl)-5-(3,4-methylenedioxybenzyloxymethyl)isoxazole-3-carboxamide] | ≥ 90 | ≥ 80 | pest or weed control at 500 ppm (Musca domestica [1]): ≥ 90%; pest or weed control at 3.5 ppm (Culex pipiens pallens [6]): ≥ 90%; pest or weed control at 500 ppm (Spodoptera litura): ≥ 80%; pest or weed control at 0.1 % strength (Blattella germanica [5]): ≥ 80%; pest or weed control at 500 ppm (Plutella xylostella): ≥ 90% |
| O=C(NCC1CCOCC1)c1cc(COCc2ccc3c(c2)OCO3)on1 [(106), N-(tetrahydropyran-4-ylmethyl)-5-(3,4-methylenedioxybenzyloxymethyl)isoxazole-3-carboxamide] | ≥ 90 | ≥ 80 | pest or weed control at 3.5 ppm (Culex pipiens pallens [7]): ≥ 90%; pest or weed control at 3.5 ppm (Culex pipiens pallens [6]): ≥ 90%; pest or weed control at 500 ppm (Spodoptera litura): ≥ 80%; pest or weed control at 0.1 % strength (Blattella germanica [5]): ≥ 80%; pest or weed control at 500 ppm (Plutella xylostella): ≥ 90% |
| O=C(NCC1CCOC1)c1cc(CCCCCO)on1 (centres unmarked) [(142), N-(tetrahydrofuran-3-ylmethyl)-5-(5-hydroxypentyl)isoxazole-3-carboxamide] | ≥ 90 | – | – |
| O=C(NCC1CCOC1)c1cc(COc2ccc(OC(F)(F)F)cc2)on1 (centres unmarked) [(190), N-(tetrahydrofuran-3-ylmethyl)-5-(4-trifluoromethoxyphenoxymethyl)isoxazole-3-carboxamide] | – | ≥ 80 | pest or weed control at 3.5 ppm (Culex pipiens pallens [7]): ≥ 90%; pest or weed control at 3.5 ppm (Culex pipiens pallens [6]): ≥ 90%; pest or weed control at 500 ppm (Spodoptera litura): ≥ 80%; pest or weed control at 0.1 % strength (Blattella germanica [5]): ≥ 80%; pest or weed control at 500 ppm (Plutella xylostella): ≥ 90% |
| O=C(NCC1CCOC1)c1cc(COc2cccc(F)c2)on1 (centres unmarked) [(194), N-(tetrahydrofuran-3-ylmethyl)-5-(3-fluorophenoxymethyl)isoxazole-3-carboxamide] | ≥ 90 | ≥ 80 | pest or weed control at 0.1 % strength (Blattella germanica [5]): ≥ 80% |
| O=C(NCC1CCOC1)c1cc(COc2ccc3c(c2)OCO3)on1 (centres unmarked) [(204), N-(tetrahydrofuran-3-ylmethyl)-5-(5-(1,3-benzodioxolanyl)oxymethyl)isoxazole-3-carboxamide] | ≥ 90 | ≥ 80 | pest or weed control at 0.1 % strength (Blattella germanica [5]): ≥ 80% |
